Target: T1, GABA A receptor α5β3γ2 (Homo sapiens, UniProt P18507+P31644)
T1 construct: expressed in transfected cells; host or cells: HEK293 cells, transiently transfected; membranes prepared
Assay: [3H]flumazenil competition binding, human GABA A α5β3γ2
Conditions: competition for [3H]flumazenil (0.5 nM) binding, HEK293 cells expressing human (transiently transfected) α5β3γ2; means of two determinations; read-out: Ki[nM] hα5
Protocol: Membrane Preparation and Binding Assay
The affinity of compounds at GABA A receptor subtypes was measured by competition for [3H]flumazenil (85 Ci/mmol; Roche) binding to HEK293 cells expressing rat (stably transfected) or human (transiently transfected) receptors of composition
Cell pellets were suspended in Krebs-tris buffer (4.8 mM KCl, 1.2 mM CaCl2, 1.2 mM MgCl2, 120 mM NaCl, 15 mM Tris; pH 7.5; binding assay buffer), homogenized by polytron for ca. 20 sec on ice and centrifuged for 60 min at 4° C. (50000 g; Sorvall, rotor: SM24=20000 rpm). The cell pellets were resuspended in Krebs-tris buffer and homogenized by polytron for ca. 15 sec on ice. Protein was measured (Bradford method, Bio-Rad) and aliquots of 1 mL were prepared and stored at −80° C.
Assays were incubated to equilibrium for 1 hour at 4° C. and harvested onto GF/C uni-filters (Packard) by filtration using a Packard harvester and washing with ice-cold wash buffer (50 mM Tris; pH 7.5). After drying, filter-retained radioactivity was detected by liquid scintillation counting. Ki values were calculated using Excel-Fit (Microsoft) and are the means of two determinations.

SMILES	Ki [nM]
Cc1onc(-c2ccccc2)c1-c1nnc(-c2ccc(N3CCSCC3)cc2)o1 [Example 37, 4-{4-[5-(5-Methyl-3-phenyl-isoxazol-4-yl)-[1,3,4]oxadiazol-2-yl]-phenyl}-thiomorpholine]	22.9
Cc1onc(-c2ccccc2)c1-c1nnc(-c2ccc(N3CCS(=O)(=O)CC3)cc2)o1 [Example 38, 4-{4-[5-(5-Methyl-3-phenyl-isoxazol-4-yl)-[1,3,4]oxadiazol-2-yl]-phenyl}-thiomorpholine 1,1-dioxide]	19.7
Cc1onc(-c2ccccc2)c1-c1nnc(-c2ccc(N3CC[S+]([O-])CC3)cc2)o1 [Example 39, 4-{4-[5-(5-Methyl-3-phenyl-isoxazol-4-yl)-[1,3,4]oxadiazol-2-yl]-phenyl}-thiomorpholine 1-oxide]	16.7
Cc1onc(-c2ccccc2)c1-c1nnc(-c2ccncc2)o1 [Example 40, 4-[5-(5-Methyl-3-phenyl-isoxazol-4-yl)-[1,3,4]oxadiazol-2-yl]-pyridine]	179
Cc1onc(-c2ccccc2)c1-c1nnc(-c2ccc(N3C[C@@H](C)O[C@@H](C)C3)cc2)o1 [Example 41, rac-(2S,6R)-2,6-Dimethyl-4-{4-[5-(5-methyl-3-phenyl-isoxazol-4-yl)-[1,3,4]oxadiazol-2-yl]-phenyl}-morpholine]	32.5
Cc1onc(-c2ccccc2)c1-c1nnc(-c2ccccc2OC(F)F)o1 [Example 42, 2-(2-Difluoromethoxy-phenyl)-5-(5-methyl-3-phenyl-isoxazol-4-yl)-[1,3,4]oxadiazole]	141
Cc1onc(-c2ccccc2)c1-c1nnc(-c2ccccc2OC(F)(F)F)o1 [Example 43, 2-(5-Methyl-3-phenyl-isoxazol-4-yl)-5-(2-trifluoromethoxy-phenyl)-[1,3,4]oxadiazole]	131
Cc1onc(-c2ccccc2)c1-c1nnc(-c2ccnc3ccccc23)o1 [Example 44, 4-[5-(5-Methyl-3-phenyl-isoxazol-4-yl)-[1,3,4]oxadiazol-2-yl]-quinoline]	88.9
Cc1onc(-c2ccccc2)c1-c1nnc(-c2cccc(F)c2)o1 [Example 45, 2-(3-Fluoro-phenyl)-5-(5-methyl-3-phenyl-isoxazol-4-yl)-[1,3,4]oxadiazole]	100
Cc1onc(-c2ccccc2)c1-c1nnc(-c2ccccc2OCc2ccccc2)o1 [Example 46, 2-(2-Benzyloxy-phenyl)-5-(5-methyl-3-phenyl-isoxazol-4-yl)-[1,3,4]oxadiazole]	255
Cc1onc(-c2ccccc2)c1-c1nnc(-c2ccc(N3CCCCC3)cc2)o1 [Example 47, 1-{4-[5-(5-Methyl-3-phenyl-isoxazol-4-yl)-[1,3,4]oxadiazol-2-yl]-phenyl}-piperidine]	46.9
Cc1onc(-c2ccccc2)c1-c1nnc(-c2ccc(N)nc2)o1 [Example 48, 5-[5-(5-Methyl-3-phenyl-isoxazol-4-yl)-[1,3,4]oxadiazol-2-yl]-pyridin-2-ylamine]	38.9
COc1cc(C(F)(F)F)ccc1-c1nnc(-c2c(-c3ccccc3)noc2C)o1 [Example 49, 2-(2-Methoxy-4-trifluoromethyl-phenyl)-5-(5-methyl-3-phenyl-isoxazol-4-yl)-[1,3,4]oxadiazole]	39.7
Cc1onc(-c2ccccc2)c1-c1nnc(-c2ccc(C(F)(F)F)cc2)o1 [Example 50, 2-(5-Methyl-3-phenyl-isoxazol-4-yl)-5-(4-trifluoromethyl-phenyl)-[1,3,4]oxadiazole]	250
Cc1onc(-c2ccccc2)c1-c1nnc(-c2ccc3c(c2)n(C)c(=O)n3C)o1 [Example 51, 1,3-Dimethyl-5-[5-(5-methyl-3-phenyl-isoxazol-4-yl)-[1,3,4]oxadiazol-2-yl]-1,3-dihydro-benzoimidazol-2-one]	128
Cc1onc(-c2ccccc2)c1-c1nnc(-c2ccc(OC(F)F)cc2)o1 [Example 52, 2-(4-Difluoromethoxy-phenyl)-5-(5-methyl-3-phenyl-isoxazol-4-yl)-[1,3,4]oxadiazole]	58.9
CC(C)c1onc(-c2ccccc2)c1-c1nnc(-c2ccc3c(c2)n(C)c(=O)n3C)o1 [Example 53, 5-[5-(5-Isopropyl-3-phenyl-isoxazol-4-yl)-[1,3,4]oxadiazol-2-yl]-1,3-dimethyl-1,3-dihydro-benzoimidazol-2-one]	2.3
Cc1onc(-c2ccccc2)c1-c1nnc(-c2ccnc(Cl)c2)o1 [Example 54, 2-Chloro-4-[5-(5-methyl-3-phenyl-isoxazol-4-yl)-[1,3,4]oxadiazol-2-yl]-pyridine]	88.4

SMILES	Ki [nM]
Cc1onc(-c2ccccc2)c1-c1nnc(-c2ccnc(N3CCOCC3)c2)o1 [Example 55, 4-{4-[5-(5-Methyl-3-phenyl-isoxazol-4-yl)-[1,3,4]oxadiazol-2-yl]-pyridin-2-yl}-morpholine]	324
COc1cc(N2CC[S+]([O-])CC2)ccc1-c1nnc(-c2c(-c3ccccc3)noc2C)o1 [Example 56, 4-{3-Methoxy-4-[5-(5-methyl-3-phenyl-isoxazol-4-yl)-[1,3,4]oxadiazol-2-yl]-phenyl}-thiomorpholine 1-oxide]	2.2
Cc1onc(-c2ccccc2)c1-c1nnc(-c2ccc(C#N)cc2)o1 [Example 57, 4-[5-(5-Methyl-3-phenyl-isoxazol-4-yl)-[1,3,4]oxadiazol-2-yl]-benzonitrile]	84.2
COc1cc(-n2ccnc2C)ccc1-c1nnc(-c2c(-c3ccccc3)noc2C)o1 [Example 58, 2-[2-Methoxy-4-(2-methyl-imidazol-1-yl)-phenyl]-5-(5-methyl-3-phenyl-isoxazol-4-yl)-[1,3,4]oxadiazole]	13.9
Cc1onc(-c2ccccc2)c1-c1nnc(-c2ccc(-n3ccnc3C)cc2)o1 [Example 59, 2-[4-(2-Methyl-imidazol-1-yl)-phenyl]-5-(5-methyl-3-phenyl-isoxazol-4-yl)-[1,3,4]oxadiazole]	30.7
CCc1onc(-c2ccccc2)c1-c1nnc(-c2ccc(F)cc2OC)o1 [Example 60, 2-(5-Ethyl-3-phenyl-isoxazol-4-yl)-5-(4-fluoro-2-methoxy-phenyl)-[1,3,4]oxadiazole]	96
COc1cc(F)ccc1-c1nnc(-c2c(-c3ccccc3)noc2C(C)C)o1 [Example 61, 2-(4-Fluoro-2-methoxy-phenyl)-5-(5-isopropyl-3-phenyl-isoxazol-4-yl)-[1,3,4]oxadiazole]	17.7
COc1cc(NS(=O)(=O)c2cccs2)ccc1-c1nnc(-c2c(-c3ccccc3)noc2C)o1 [Example 62, Thiophene-2-sulfonic acid {3-methoxy-4-[5-(5-methyl-3-phenyl-isoxazol-4-yl)-[1,3,4]oxadiazol-2-yl]-phenyl}-amide]	42.8
COc1cc(NS(=O)(=O)C(C)C)ccc1-c1nnc(-c2c(-c3ccccc3)noc2C)o1 [Example 63, Propane-2-sulfonic acid {3-methoxy-4-[5-(5-methyl-3-phenyl-isoxazol-4-yl)-[1,3,4]oxadiazol-2-yl]-phenyl}-amide]	42.8
COc1cc(NC2CCOCC2)ccc1-c1nnc(-c2c(-c3ccccc3)noc2C)o1 [Example 64, {3-Methoxy-4-[5-(5-methyl-3-phenyl-isoxazol-4-yl)-[1,3,4]oxadiazol-2-yl]-phenyl}-(tetrahydro-pyran-4-yl)-amine]	4.2
COc1cc(NC2CCN(C)CC2)ccc1-c1nnc(-c2c(-c3ccccc3)noc2C)o1 [Example 65, {3-Methoxy-4-[5-(5-methyl-3-phenyl-isoxazol-4-yl)-[1,3,4]oxadiazol-2-yl]-phenyl}-(1-methyl-piperidin-4-yl)-amine]	15.3
COc1cc(N2CCNCC2)ccc1-c1nnc(-c2c(-c3ccccc3)noc2C)o1 [Example 66, 1-{3-Methoxy-4-[5-(5-methyl-3-phenyl-isoxazol-4-yl)-[1,3,4]oxadiazol-2-yl]-phenyl}-piperazine]	13.4
COc1cc(N2CCN(C)CC2)ccc1-c1nnc(-c2c(-c3ccccc3)noc2C)o1 [Example 67, 1-{3-Methoxy-4-[5-(5-methyl-3-phenyl-isoxazol-4-yl)-[1,3,4]oxadiazol-2-yl]-phenyl}-4-methyl-piperazine]	15.5
COc1cc(N2CCOCC2)ccc1-c1nnc(-c2c(-c3ccccc3)noc2C)o1 [Example 68, 4-{3-Methoxy-4-[5-(5-methyl-3-phenyl-isoxazol-4-yl)-[1,3,4]oxadiazol-2-yl]-phenyl}-morpholine]	4.2
COc1ccccc1-c1nnc(-c2c(-c3ccccc3)noc2C2CC2)o1 [Example 69, 2-(5-Cyclopropyl-3-phenyl-isoxazol-4-yl)-5-(2-methoxy-phenyl)-[1,3,4]oxadiazole]	8.1
Cc1onc(-c2ccccc2)c1-c1nnc(C2CCCCC2)o1 [Example 70, 2-Cyclohexyl-5-(5-methyl-3-phenyl-isoxazol-4-yl)-[1,3,4]oxadiazole]	262
COC(=O)c1ccc(-c2nnc(-c3c(-c4ccccc4)noc3C)o2)cc1 [Example 71, 4-[5-(5-Methyl-3-phenyl-isoxazol-4-yl)-[1,3,4]oxadiazol-2-yl]-benzoic acid methyl ester]	289
COc1cc(N(C)C)ccc1-c1nnc(-c2c(-c3ccccc3)noc2C)o1 [Example 72, {3-Methoxy-4-[5-(5-methyl-3-phenyl-isoxazol-4-yl)-[1,3,4]oxadiazol-2-yl]-phenyl}-dimethyl-amine]	12

Reference: patent US7956074B2, “Aryl-isoxazolo-4-yl-oxadiazole derivatives” (Hoffman-La Roche Inc., priority 2005, dated 2011)
